Data taken from patent US12383545B1, “Treatment of migraine” (priority 2018, dated 2025).

System: participants with episodic migraine
Experiment: Study B: phase 3 randomized open-label 52-week long-term safety trial, eDiary efficacy (atogepant arm)
Type: in vivo, human
Conditions: for Change from Baseline in Monthly Acute Medication Use Days, LS means - MMRM / Monthly Acute Medication Use Days, Observed Mean: Atogepant 60 mg QD, mITT Population
Protocol: Study B: A phase 3, multicenter, randomized, open label study was conducted to evaluate the long-term safety and tolerability of oral atogepant for the prevention of migraine in participants with episodic migraine (Study B). The study objective was to evaluate the safety and tolerability of daily treatment with atogepant 60 mg QD when administered over 52 weeks for the prevention of migraine in participants with episodic migraine.
FIG. 12 provides a schematic for the long-term safety study design. The study comprised a 4-week baseline/screening period, followed by a 52-week open-label treatment period, and a 4-week safety follow-up period.
A total of 744 participants from 106 sites were randomized in a ratio of 5:2 to the following treatment groups: atogepant 60 mg QD or oral standard of care (SOC) migraine prevention medication. The latter arm was included to contextualize safety data from the atogepant-treated participants, and efficacy measures were collected from the atogepant arm only. Efficacy measures were evaluated using the modified intent-to-treat (mITT) population and a mixed-effects model for repeated measures and included changes from baseline in monthly migraine days (MDDs), moderate/severe headache days, and acute medication use days, as well as the proportion of responders based on reductions in MMDs.
A total of 739 patients (n=546 atogepant) were included in the safety population.
All Screened Participants include those screened participants that signed informed consent forms. The Intent-to-Treat Population (ITT) includes all of the randomized participants. The safety population includes all participants who received at least one dose of study intervention (atogepant or SOC medication).
Efficacy endpoints for this study included change from baseline in monthly migraine days at each monthly period; change from baseline in monthly headache days at each monthly period; change from baseline in monthly acute medication use days at each monthly period; and ≥50% improvement (reduction) in monthly migraine days at each monthly period.

[1] = Study B, 60 mg QD, Weeks 1-4, mITT
[2] = Study B, 60 mg QD, Weeks 5-8, mITT
[3] = Study B, 60 mg QD, Weeks 9-12, mITT
[4] = Study B, 60 mg QD, Weeks 13-16, mITT
[5] = Study B, 60 mg QD, Weeks 17-20, mITT
[6] = Study B, 60 mg QD, Weeks 21-24, mITT
[7] = Study B, 60 mg QD, Weeks 25-28, mITT
[8] = Study B, 60 mg QD, Weeks 29-32, mITT
[9] = Study B, 60 mg QD, Weeks 33-36, mITT
[10] = Study B, 60 mg QD, Weeks 37-40, mITT
[11] = Study B, 60 mg QD, Weeks 41-44, mITT
[12] = Study B, 60 mg QD, Weeks 45-48, mITT
[13] = Study B, 60 mg QD, Weeks 49-52, mITT
[14] = Study B, 60 mg QD, weeks 49-52, participants who remained in the trial

For `C[C@@H]1[C@H](c2c(F)ccc(F)c2F)C[C@H](NC(=O)c2cnc3c(c2)C[C@@]2(C3)C(=O)Nc3ncccc32)C(=O)N1CC(F)(F)F` [atogepant], the “Monthly headache days, change from baseline, LS means (95% CI) - MMRM” value (“Monthly headache days, change … (95% CI) - MMRM” for short) [1] was -4.00 days, the “Monthly headache days, observed mean (SD)” value (from here on “Monthly headache days … (SD)”) [1] was 4.40 days and the “Monthly migraine days, change from baseline, LS means (95% CI) - MMRM” value (“Monthly migraine days, change … (95% CI) - MMRM” for short) [1] was -3.84 days. For the same molecule, the “Monthly migraine days, observed mean (SD)” value (from here on “Monthly migraine days … (SD)”) [1] was 3.47 days, the “≥50% improvement (reduction) in monthly migraine days, responder n/N1 (%)” value (shortened to “≥50% improvement (reduction)”) [1] was “(60.4) %” and the “Monthly headache days, change … (95% CI) - MMRM” value [2] was -4.40 days. The “Monthly headache days … (SD)” value [2] was 3.97 days, the “Monthly migraine days, change … (95% CI) - MMRM” value [2] was -4.15 days and the “Monthly migraine days … (SD)” value [2] was 3.13 days. The “≥50% improvement (reduction)” value [2] was “(65.1) %”, the “Monthly headache days, change … (95% CI) - MMRM” value [3] was -4.80 days and the “Monthly headache days … (SD)” value [3] was 3.51 days. The “Monthly migraine days, change … (95% CI) - MMRM” value [3] was -4.38 days, the “Monthly migraine days … (SD)” value [3] was 2.85 days and the “≥50% improvement (reduction)” value [3] was “(70.2) %”. For the same molecule, the “Monthly headache days, change … (95% CI) - MMRM” value [4] was -5.12 days, the “Monthly headache days … (SD)” value [4] was 3.19 days and the “Monthly migraine days, change … (95% CI) - MMRM” value [4] was -4.69 days. The “Monthly migraine days … (SD)” value [4] was 2.52 days, the “≥50% improvement (reduction)” value [4] was “(74.1) %” and the “Monthly headache days, change … (95% CI) - MMRM” value [5] was -5.35 days. For the same molecule, the “Monthly headache days … (SD)” value [5] was 2.84 days, the “Monthly migraine days, change … (95% CI) - MMRM” value [5] was -4.76 days and the “Monthly migraine days … (SD)” value [5] was 2.33 days. The “≥50% improvement (reduction)” value [5] was “(73.5) %”, the “Monthly headache days, change … (95% CI) - MMRM” value [6] was -5.30 days and the “Monthly headache days … (SD)” value [6] was 2.87 days. The “Monthly migraine days, change … (95% CI) - MMRM” value [6] was -4.72 days, the “Monthly migraine days … (SD)” value [6] was 2.37 days and the “≥50% improvement (reduction)” value [6] was “(75.3) %”. The “Monthly headache days, change … (95% CI) - MMRM” value [7] was -5.42 days, the “Monthly migraine days, change … (95% CI) - MMRM” value [7] was -4.85 days and the “Monthly migraine days … (SD)” value [7] was 2.20 days. For the same molecule, the “≥50% improvement (reduction)” value [7] was “(75.1) %”, the “Monthly headache days, change … (95% CI) - MMRM” value [8] was -5.41 days and the “Monthly headache days … (SD)” value [8] was 2.52 days. The “Monthly migraine days, change … (95% CI) - MMRM” value [8] was -4.82 days, the “Monthly migraine days … (SD)” value [8] was 2.12 days and the “≥50% improvement (reduction)” value [8] was “(76.7) %”. The “Monthly headache days, change … (95% CI) - MMRM” value [9] was -5.62 days, the “Monthly headache days … (SD)” value [9] was 2.47 days and the “Monthly migraine days, change … (95% CI) - MMRM” value [9] was -4.95 days. The “Monthly migraine days … (SD)” value [9] was 2.06 days, the “≥50% improvement (reduction)” value [9] was “(80.5) %” and the “Monthly headache days, change … (95% CI) - MMRM” value [10] was -5.69 days. For the same molecule, the “Monthly headache days … (SD)” value [10] was 2.45 days, the “Monthly migraine days, change … (95% CI) - MMRM” value [10] was -4.97 days and the “Monthly migraine days … (SD)” value [10] was 2.08 days. For the same molecule, the “≥50% improvement (reduction)” value [10] was “(78.1) %”, the “Monthly headache days, change … (95% CI) - MMRM” value [11] was -5.66 days and the “Monthly headache days … (SD)” value [11] was 2.45 days. For the same molecule, the “Monthly migraine days, change … (95% CI) - MMRM” value [11] was -4.95 days, the “Monthly migraine days … (SD)” value [11] was 2.09 days and the “≥50% improvement (reduction)” value [11] was “(78.5) %”. For the same molecule, the “Monthly headache days, change … (95% CI) - MMRM” value [12] was -5.90 days, the “Monthly headache days … (SD)” value [12] was 2.23 days and the “Monthly migraine days, change … (95% CI) - MMRM” value [12] was -5.13 days. For the same molecule, the “Monthly migraine days … (SD)” value [12] was 1.91 days, the “≥50% improvement (reduction)” value [12] was “(82.4) %” and the “Monthly headache days, change … (95% CI) - MMRM” value [13] was -5.99 days. The “Monthly headache days … (SD)” value [13] was 2.13 days, the “Monthly migraine days, change … (95% CI) - MMRM” value [13] was -5.19 days and the “Monthly migraine days … (SD)” value [13] was 1.84 days. For the same molecule, the “≥50% improvement (reduction)” value [13] was 84.2%, the “≥50% improvement (reduction)” value (Study B, 60 mg QD, Weeks 49-52, mITT, listed as Atogepant) was “(84.2) %” and the “participants with 100% reduction in MMDs” value [14] was 48.4%. The “participants with ≥75% reduction in MMDs” value [14] was 69.9%, the “reduction from baseline in monthly migraine days” value (Study B, 60 mg, month 1, given as reduction) was “approximately 4 days” and the “Change from Baseline in Monthly Acute Medication Use Days, LS means - MMRM” value (from here on “Change from Baseline … LS means - MMRM”) (Weeks 1-4) was -4.04 days. The “Monthly Acute Medication Use Days, Observed Mean” value (Weeks 1-4) was 2.60 days, the “Change from Baseline … LS means - MMRM” value (Weeks 5-8) was -4.11 days and the “Monthly Acute Medication Use Days, Observed Mean” value (Weeks 5-8) was 2.49 days. The “Change from Baseline … LS means - MMRM” value (Weeks 9-12) was -4.18 days, the “Monthly Acute Medication Use Days, Observed Mean” value (Weeks 9-12) was 2.39 days and the “Change from Baseline … LS means - MMRM” value (Weeks 13-16) was -4.46 days. For the same molecule, the “Monthly Acute Medication Use Days, Observed Mean” value (Weeks 13-16) was 2.09 days, the “Change from Baseline … LS means - MMRM” value (Weeks 17-20) was -4.56 days and the “Monthly Acute Medication Use Days, Observed Mean” value (Weeks 17-20) was 1.92 days. The “Change from Baseline … LS means - MMRM” value (Weeks 21-24) was -4.49 days, the “Monthly Acute Medication Use Days, Observed Mean” value (Weeks 21-24) was 2.01 days and the “Change from Baseline … LS means - MMRM” value (Weeks 25-28) was -4.59 days. For the same molecule, the “Monthly Acute Medication Use Days, Observed Mean” value (Weeks 25-28) was 1.90 days, the “Change from Baseline … LS means - MMRM” value (Weeks 29-32) was -4.54 days and the “Monthly Acute Medication Use Days, Observed Mean” value (Weeks 29-32) was 1.84 days. For the same molecule, the “Change from Baseline … LS means - MMRM” value (Weeks 33-36) was -4.66 days, the “Monthly Acute Medication Use Days, Observed Mean” value (Weeks 33-36) was 1.75 days and the “Change from Baseline … LS means - MMRM” value (Weeks 37-40) was -4.68 days. For the same molecule, the “Monthly Acute Medication Use Days, Observed Mean” value (Weeks 37-40) was 1.75 days, the “Change from Baseline … LS means - MMRM” value (Weeks 41-44) was -4.71 days and the “Monthly Acute Medication Use Days, Observed Mean” value (Weeks 41-44) was 1.69 days. For the same molecule, the “Change from Baseline … LS means - MMRM” value (Weeks 45-48) was -4.90 days, the “Monthly Acute Medication Use Days, Observed Mean” value (Weeks 45-48) was 1.51 days and the “Change from Baseline … LS means - MMRM” value (Weeks 49-52) was -4.93 days. The “Monthly Acute Medication Use Days, Observed Mean” value (Weeks 49-52) was 1.50 days.
